Laboratory results published in patent US11065211B2, “Isoxylitones mediated neurogenesis” (priority 2018, dated 2021).

How the values were obtained:
Assay type in all cases: cell-based, rat
[1] = tested on: cortical cells; assay: BrdU proliferation ELISA assay; details: 150 μg/ml, 24 h, FIG. 5
Experimental: (§1) BrdU-Incorporation Assay: For measuring the newly synthesized cells during proliferation of treated and un-treated cultured hippocampal, cortical and co-cultured cells, the BrdU (Calbiochem®, CA, USA) cell proliferation ELISA kit was used. This immunoassay is based on the measurement of BrdU (5-bromo-2′-deoxiurydine) incorporation into DNA during division phase of the proliferating cells. For BrdU proliferation assay, primary cultured cells were grown in 75 cm flasks and when cells were confluent they were trypsinized and re-plated with a cell density of 1×10^5 cells/mL in 96-well tissue culture grade flat bottom ELISA plates, i.e., (10,000 cells/well) in DMEM medium (high glucose). The plates were incubated overnight at 37° C. in 5% CO2. Next day, media was changed and adherent cells were treated with different doses of isoxylitones, i.e., 25, 50, 75, 100, and 150 μg/mL and incubated for 24 hrs in a humidified chamber at 37° C. and 5% CO2.
(§2) The following day, the cells were first labeled by the 20 μL of BrdU (1:2000) in fresh medium and kept in a humidified atmosphere at 37° C. for 24 hrs. During 20-24 hrs of labeling period, BrdU is incorporated in place of thymidine into the DNA of the proliferating cells. After removing the labeling medium by tapping off the plate, cells were fixed, and DNA denatured in one step by adding 200 μL of fixative or Denat solution (provided in the kit) in each well following incubation for 30 minutes at room temperature.
(§3) The fixation and denaturation of DNA is required to expose the incorporated BrdU for detection by the antibody. The fixative or Denat solution was removed by flicking off and tapping on paper towel. […] The immune complexes were detected by the subsequent substrate reaction and the absorbance was measured on spectrophotometer plate reader at dual wave lengths of 450-595 nm within 30 minutes of adding the stop solution. The data was analyzed using SPSS and graphs were made on Excel.

[2] = tested on: hippocampal cells; assay: BrdU proliferation ELISA assay; details: 24 h, FIG. 5
Experimental: as §1, §2, §3

[3] = tested on: hypoxic cortical cells; assay: In-vitro model of hypoxic pre-conditioning; details: 2 h hypoxia then treatment at various concentrations, vs positive control hypoxic cells, FIG. 7
[4] = tested on: tubulin; assay: Immunocytochemical analysis of primary cultured and cocultured cells
Experimental: (§4) Immuncytochemical analysis was performed for differentiation studies of primary cultures of cortex, hippocampus, and co-cultures (CoCul) in absence of growth factors and serum free medium.
(§5) The cultured cells of cortex, hippocampus, and co-cultured cells in the presence of serum free medium were plated in chamber slides at the density of 20,000 cells/mL and treated with a proliferative dose of isoxylitones, i.e., 150 μg/ml for 24 hrs at 37° C. and 5% CO2 to let the cells adhere on the bottom surface of the slide. Following incubation, the media was refreshed and the cells were immunolabelled as mentioned in table #2.1.
(§6) For immunostaining, the media was removed; cells were washed gently with 1 mL of 1×PBS. After removing 1×PBS, 4% formaldehyde was added and the slides were incubated for 20 minutes at room temperature to fix the cells. The fixative was aspirated followed by a three times rinse with 1 mL of 1×PBS. After washing, the blocking buffer (BSA having 3% normal goat serum, 0.2% tween-20 and 0.3% of Triton X-100 in 10×PBS) was added and the slides were kept at room temperature for an hour. Then, the cells were washed gently three times with 1×PBS on an orbital shaker and 300 μL of primary antibodies (dilution mentioned in table #2.1) were added to each slide and incubated overnight at 4° C. Following incubation, the cells were washed gently in PBS three times (5 minutes each wash) on an orbital shaker. Next secondary antibody (Table #2.1) in 3% normal serum or BSA was added to their respective chamber and incubated for 1 hour at room temperature in dark. Following incubation, the slides were washed with 1×PBS.
(§7) Diluted Dapi (1:1000) was added into each slide to counter stain the nucleus. After rinsing twice with distilled water, images were captured using the Nikon 90i with fluorescence microscopes (Nikon. Tokyo, Japan) equipped with Nuance Software version 3.1 (Caliper Life Sciences. Hopkinton, Mass.). The magnification used was 20×.
(§8) For quantification studies, ImageJ software (National Institutes of Health, USA) was used to digitalized the images. This software provides multiple imaging system data comparisons taking densitometry in consideration. Briefly, 5 different regions were randomly selected and the fluorescence intensity was quantified in cells and the background intensity of each image was subtracted from it, the residual particles were measured to represent expression of relevant protein. Cells or fields were counted and percentage intensity of protein expression was measured and means percentage intensity was calculated. Data from three individual experiments was obtained and expressed as means±SEM.

[5] = tested on: Neuro D1; assay: as above
Experimental: as §4, §5, §6, §7, §8

## CC(=O)C=C1C=C(C)CC(C)(C)C1 (mixture of isomers) [isoxylitones]
[1]
  BrdU positive cells: slightly increased BrdU positive cells
[2]; 100 μg/ml
  BrdU positive cells: significantly increased BrdU positive cells
[2]; 150 μg/ml
  BrdU positive cells: significantly increased BrdU positive cells
[3]
  recovery of hypoxic cells (phase-contrast morphology): Recovery of hypoxic cells clearly observed
[4]; (A) cortical and (B) CoCul-CTX cells, P<0.01, FIG. 12
  tubulin expression (immunofluorescence): significant upregulation of tubulin
[4]; (A) hippocampal and (B) CoCul-HP cells, 150 μg/ml, 24 h, vs control, FIG. 13
  tubulin expression (immunofluorescence): significant upregulation
[5]; (A) cortical and (B) CoCul-CTX cells, 150 μg/ml, 24 h, vs control, FIG. 16
  Neuro D1 protein expression: significant upregulation
[5]; (A) hippocampal and (B) CoCul-HP cells, FIG. 17
  Neuro D1 immunofluorescence intensity: significant up-regulation in immunofluorescence of NeuroD1 intensity
